Values quoted from earlier work as cited in patent US8137397B2, “Medical devices” (Boston Scientific Scimed, Inc., priority 2004, dated 2012).

Details: at about room temperature, i.e., about 25° C.; for solubility: in water

| solubility | Compound | solubility in water (in words) |
| --- | --- | --- |
| about 2 gram/mL of water | OC[C@H]1O[C@@](CO)(O[C@H]2O[C@H](CO)[C@@H](O)[C@H](O)[C@H]2O)[C@@H](O)[C@@H]1O [Sucrose, sucrose] | – |
| – | O=C(CO)[C@H](O)[C@@H](O)[C@H](O)CO [Sorbose, sorbose] | freely soluble in water |
| about 0.18 gram/mL of water | OC[C@@H](O)[C@@H](O)[C@H](O)[C@H](O)CO [Mannitol, mannitol] | – |

| Compound | solubility | solubility in water (in words) |
| --- | --- | --- |
| [Cl-].[K+] [Potassium chloride, potassium chloride] | about 0.36 gram/mL of water | – |
